Laboratory results: patent US8129384B2, “Imidazo[1,2-a]pyrazines as orexin receptor antagonists” (Glaxo Group Limited, priority 2008, dated 2012)
Where a name gives a salt, the structure may show the parent alone.

How the values were obtained:
[1] = target: T1, human cloned orexin-1 receptor (Homo sapiens, UniProt O43613); test: Antagonist affinity at human Orexin-1 receptor using FLIPR ([Ca2+]i); format: cell-based; conditions: CHO-hOX1 cells, EC80 hOrexinA stimulus, functional pKi from IC50 by modified Cheng-Prusoff correction; read-out: fpKi value at the human cloned orexin-1 receptor (converted)
T1 construct: expressed in transfected cells
T1 sequence (O43613 1-425): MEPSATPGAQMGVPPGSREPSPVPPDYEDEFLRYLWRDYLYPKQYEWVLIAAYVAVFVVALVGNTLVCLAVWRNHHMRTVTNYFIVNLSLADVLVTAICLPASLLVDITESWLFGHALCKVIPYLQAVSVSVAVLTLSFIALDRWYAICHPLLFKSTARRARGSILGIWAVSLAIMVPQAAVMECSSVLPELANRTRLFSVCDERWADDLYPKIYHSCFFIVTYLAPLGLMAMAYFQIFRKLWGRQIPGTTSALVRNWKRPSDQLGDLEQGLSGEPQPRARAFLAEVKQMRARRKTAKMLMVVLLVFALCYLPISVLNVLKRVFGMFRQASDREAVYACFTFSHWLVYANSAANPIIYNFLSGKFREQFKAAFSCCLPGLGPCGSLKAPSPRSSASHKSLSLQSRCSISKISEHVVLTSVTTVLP
Protocol: (§1) Determination of Antagonist Affinity at Human Orexin-1 and 2 Receptors Using FLIPR
(§2) Adherent Chinese Hamster Ovary (CHO) cells, stably expressing the recombinant human Orexin-1 (hOX1) or human Orexin-2 receptors (hOX2), were maintained in culture in Alpha Minimum Essential Medium (Gibco/Invitrogen, cat. no.; 22571-020), supplemented with 10% decomplemented foetal bovine serum (Life Technologies, cat. no. 10106-078) and 400 ug/mL Geneticin G418 (Calbiochem, cat. no. 345810). Cells were grown as monolayers under 95%:5% air:CO2 at 37° C. and passaged every 3-4 days. The highest passage used was 25. […]
(§3) An agonist stimulus 384-well plate containing 50 μL/well of human orexin A (hOrexinA) was prepared just before using by diluting with buffer a stock plate: final concentration is equivalent to the calculated EC80 for hOrexinA. […]
(§4) The loaded cells were then incubated for 10 min at 37° C. with test compound. The plates were then placed into a FLIPR™ (Molecular Devices, UK) to monitor cell fluorescence (λex=488 nm, λEM=540 nm) (Sullivan E, Tucker E M, Dale I L. Measurement of [Ca^2+]i using the fluometric imaging plate reader (FLIPR). In: Lambert D G (ed.), Calcium Signaling Protocols. New Jersey: Humana Press, 1999, 125-136). A baseline fluorescence reading was taken over a 5 to 10 second period, and then 10 μL of EC80 hOrexinA solution was added. […]

[2] = target: T2, human cloned orexin-2 receptor (Homo sapiens, UniProt O43614); test: Antagonist affinity at human Orexin-2 receptor using FLIPR ([Ca2+]i); format: cell-based; conditions: CHO-hOX2 cells, EC80 hOrexinA stimulus, functional pKi from IC50 by modified Cheng-Prusoff correction; read-out: fpKi value at the human cloned orexin-2 receptor (converted)
T2 construct: expressed in transfected cells
T2 sequence (O43614 1-444): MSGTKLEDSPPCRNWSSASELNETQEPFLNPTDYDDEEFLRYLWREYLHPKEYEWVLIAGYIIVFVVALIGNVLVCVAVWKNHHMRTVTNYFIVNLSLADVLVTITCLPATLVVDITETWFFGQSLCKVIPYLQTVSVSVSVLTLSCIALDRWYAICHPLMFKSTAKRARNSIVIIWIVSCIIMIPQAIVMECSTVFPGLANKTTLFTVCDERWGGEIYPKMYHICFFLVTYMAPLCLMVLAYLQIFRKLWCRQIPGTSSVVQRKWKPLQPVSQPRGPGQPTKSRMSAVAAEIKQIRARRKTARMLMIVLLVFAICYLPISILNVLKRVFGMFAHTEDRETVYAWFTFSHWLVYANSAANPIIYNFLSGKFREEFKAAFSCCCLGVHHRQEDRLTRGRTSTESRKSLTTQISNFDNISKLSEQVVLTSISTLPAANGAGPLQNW
Protocol: as §1, §2, §3, §4

Ki [1]: 5.01 nM
Ki [2]: 6.31 nM
Structure (SMILES): Cc1cn2cc(C[C@@H]3CCCCN3C(=O)c3nc(C)sc3-c3ccccc3)nc2c(C)n1 [Example 1, 6,8-dimethyl-2-({(2S)-1-[(2-methyl-5-phenyl-1,3-thiazol-4-yl)carbonyl]-2-piperidinyl}methyl)imidazo[1,2-a]pyrazine (HCl salt)]
